The source of these data is patent US4229452A, “Treatment of inflammatory disorders with 4-trifluoromethylimidazo[1,2-a]quinoxaline” (Westwood Pharmaceuticals, Inc., priority 1979, dated 1980).

The structures appear in SMILES notation.

The subject of series [1] is carrageenin-induced paw edema. The experiment in a line: carrageenin-induced paw edema test in the rat. It is filed as in vivo, rat (Male Charles River). Particulars: for inhibition in vivo at 16 mg/kg: 16 mg/kg po; for inhibition in vivo at 32 mg/kg: 32 mg/kg po; for inhibition in vivo at 64 mg/kg: 64 mg/kg po; for inhibition in vivo at 128 mg/kg: 128 mg/kg po; for ED30: calculated from the dose-response line; for inhibition in vivo at 8 mg/kg: 8 mg/kg po; for reduction of carrageenin-induced edema / anti-edema activity: result in words. Here is the method: Compounds of the present invention were screened in the carrageenin-inducedpaw edema test in the rat. Acetylsalicylic acid was included in the study for reference comparison.
The method employed was the carrageenin edema test [Winter, C. A., Risley, E. A. and Nuss, G. W., Proc. Soc. exp. Biol. Med. 111:544(1962) and Halperin, B. N. and Briot, M., Arch Int. Pharmacody N. 82:247(1950)].
(§1) Male Charles River Rats weighing 145 to 180 g. were employed in the study. Food was withheld for 18 hours before the start of the test, while water was withheld only during the test. Experimental drugs with the desired dose in 3 ml. distilled water (Tween 80)/100 g. body weight were administered orally as suspensions by stomach tube. Control animals, those not receiving drugs, were given the same volume of vehicle by the same route of administration. To induce inflammation, the rear paw was injected into the plantar surface with 0.1 ml. of a 1% carrageenin solution in 0.9% saline. The right paw was also injected with 0.1 ml. of a 0.9% saline solution. At the time of sacrifice, the animals were killed by chloroform. The hind paws were rapidly amputated at tarsocrural joint and weighed on an analytical balance. In all cases the drugs were administered one hour before the paw injections and the sacrifice was performed three hours after the carrageenin injection. The difference in weight (g/100 b.w.) between the carrageenin and the saline injected paws was recorded as the degree of edema.
A comparison of the effectiveness of the test compounds and the standard reference agent, acetylsalicylic acid, in inhibiting edema resulting from the injection of carrageenin is recorded in the following Table XI.
It should be noted that ED30 refers to that dose which inhibits carrageenin-induced paw edema in 30% of the animals in the test group.

The nature of series [2]: side-effects noted in the carrageenin-induced paw edema test. The note with it: rat; for Side-Effects Noted: rats died: 128 mg/kg po. It is filed as in vivo. Here is the method: as §1
(In the carrageenan paw model, swelling and tenderness develop within hours.)

As a reminder, the inhibition in vivo is the percentage by which the read-out fell short of the control. Lower therefore signals a weak effect.

In series [1], `CC(C)Cc1nc2ccccc2n2ccnc12` showed an inhibition in vivo at 16 mg/kg of 0%, an inhibition in vivo at 32 mg/kg of 25%, an inhibition in vivo at 64 mg/kg of 23% and an inhibition in vivo at 128 mg/kg of 36%. In series [1] (po), the ED30 is roughly 70 mg/kg.

`C(=Cc1nc2ccccc2n2ccnc12)c1ccccc1` displayed an inhibition in vivo at 128 mg/kg in series [1] of 0%. Besides, the ED30 in series [1] (po) is greater than 128 mg/kg. In addition, the “Side-Effects Noted” value in series [2] (po) was “NONE”.

In series [1], `c1ccc2c(c1)nc(C1CCC1)c1nccn12` registered an inhibition in vivo at 64 mg/kg of 0% and an inhibition in vivo at 128 mg/kg of 64%. The ED30 in series [1] (po) was roughly 100 mg/kg. For the same molecule, in series [2] (po), the “Side-Effects Noted” value is “Ptosis at 128 mg/kg”.

In series [1], `c1ccc2c(c1)nc(C1CCCCC1)c1nccn12` registered an inhibition in vivo at 64 mg/kg of 0% and an inhibition in vivo at 128 mg/kg of 60%. Also, in series [1] (po), the ED30 was roughly 100 mg/kg. For the same molecule, the “Side-Effects Noted” value in series [2] (po) was “NONE”.

`c1ccc(Cc2nc3ccccc3n3ccnc23)cc1`: in series [1], at 64 mg/kg the inhibition in vivo was 0% and the inhibition in vivo at 128 mg/kg came out at 0%. In addition, in series [1] (po), the ED30 is greater than 128 mg/kg. For the same molecule, in series [2] (po), the “Side-Effects Noted” value is recorded as “NONE”.

Molecule `c1ccc(OCc2nc3ccccc3n3ccnc23)cc1` yielded an inhibition in vivo at 128 mg/kg in series [1] of 0%. Also, the ED30 in series [1] (po) was greater than 128 mg/kg. For the same molecule, in series [2] (po), the “Side-Effects Noted” value is on record as “NONE”.

In series [1], `CC(=O)Oc1ccccc1C(=O)O` [ASPIRIN, acetylsalicylic acid, reference compound] returned an inhibition in vivo at 32 mg/kg of 19%, an inhibition in vivo at 64 mg/kg of 32.5% and an inhibition in vivo at 128 mg/kg of 41%. Also, in series [1] (256 mg/kg po), the inhibition in vivo at 256 mg/kg was 62%. Besides, the ED30 in series [1] (po) was 59.5 mg/kg. Moreover, the “Side-Effects Noted” value in series [2] (po) is reported as “NONE”.

Turning to `c1ccc2c(c1)ncc1nccn12` [Compound 109, imidazo[1,2-a]quinoxaline], in series [1], the inhibition in vivo at 64 mg/kg was found to be 6% and 128 mg/kg produced 54% inhibition in vivo. For the same molecule, in series [1] (po), the ED30 is roughly 100 mg/kg. Further, the “Side-Effects Noted: rats died” value in series [2] was 1/6.

Take `Cc1nc2ccccc2n2ccnc12` [Compound 110]: in series [1], 8 mg/kg produced 12% inhibition in vivo, 16 mg/kg produced 28% inhibition in vivo, 32 mg/kg produced 33% inhibition in vivo and 64 mg/kg produced 29% inhibition in vivo. For the same molecule, the inhibition in vivo at 128 mg/kg in series [1] worked out at 42%. In series [1] (po), the ED30 is 40 mg/kg and the “reduction of carrageenin-induced edema / anti-edema activity” value is on record as “significant reductions of carrageenin-induced edema without attendant side effects”. In addition, the “Side-Effects Noted: rats died” value in series [2] is 1/6.

`CCc1nc2ccccc2n2ccnc12` [Compound 111] registered an inhibition in vivo at 4 mg/kg in series [1] (4 mg/kg po) of 6%. Also, in series [1], 8 mg/kg produced 23% inhibition in vivo, the inhibition in vivo at 16 mg/kg came to 32%, the inhibition in vivo at 32 mg/kg came out at 40% and testing at 64 mg/kg gave an inhibition in vivo of 41%. Besides, the inhibition in vivo at 128 mg/kg in series [1] amounted to 57%. Besides, in series [1] (po), the “anti-edemic activity relative to acetylsalicylic acid” value was “approximately 3 X acetylsalicylic acid” and the ED30 is 20.5 mg/kg. Besides, in series [1] (po, listed as CH2 CH3), the “reduction of carrageenin-induced edema / anti-edema activity” value is given as “significant reductions of carrageenin-induced edema without attendant side effects”. The “reduction of carrageenin-induced edema / anti-edema activity” value in series [1] (po, listed as ethyl analog) is listed as “strongest anti-edemic activity”. Moreover, the selectivity ratio in series [2] (in vivo, po, read-out: dose associated with side effects, as multiple of ED30) was roughly 3.

On to `CCCc1nc2ccccc2n2ccnc12` [Compound 112], for which, in series [1], the inhibition in vivo at 64 mg/kg was found to be 0% and at 128 mg/kg the inhibition in vivo was 36%. Also, in series [1] (po), the ED30 is roughly 128 mg/kg.

In series [1], `CCCCCc1nc2ccccc2n2ccnc12` [Compound 114] yielded an inhibition in vivo at 64 mg/kg of 5% and an inhibition in vivo at 128 mg/kg of 23%. Moreover, the ED30 in series [1] (po) is greater than 128 mg/kg. Also, in series [2] (po), the “Side-Effects Noted” value is on record as “NONE”.

In series [1], `CCCCCCc1nc2ccccc2n2ccnc12` [Compound 115] displayed an inhibition in vivo at 64 mg/kg of 0% and an inhibition in vivo at 128 mg/kg of 27%. The ED30 in series [1] (po) was roughly 128 mg/kg. Moreover, the “Side-Effects Noted” value in series [2] (po) is given as “NONE”.

For `CCCCCCCc1nc2ccccc2n2ccnc12` [Compound 116], in series [1], testing at 128 mg/kg gave an inhibition in vivo of 0%. Moreover, the ED30 in series [1] (po) was greater than 128 mg/kg. The “Side-Effects Noted” value in series [2] (po) is “NONE”.

In turn, `CCCCCCCCc1nc2ccccc2n2ccnc12` [Compound 117] showed an inhibition in vivo at 128 mg/kg in series [1] of 0%. For the same molecule, the ED30 in series [1] (po) was greater than 128 mg/kg. Also, in series [2] (po), the “Side-Effects Noted” value is listed as “NONE”.

Consider `CCCCCCCCCc1nc2ccccc2n2ccnc12` [Compound 118], for which the inhibition in vivo at 128 mg/kg in series [1] turned out to be 0%. For the same molecule, in series [1] (po), the ED30 was greater than 128 mg/kg. In addition, the “Side-Effects Noted” value in series [2] (po) is given as “NONE”.

In turn, `CCCCCCCCCCCCCCCc1nc2ccccc2n2ccnc12` [Compound 119] had an inhibition in vivo at 128 mg/kg in series [1] of 9%. In series [1] (po), the ED30 is greater than 128 mg/kg. For the same molecule, the “Side-Effects Noted” value in series [2] (po) is “NONE”.

`CCCCCCCCCCCCCCCCCc1nc2ccccc2n2ccnc12` [Compound 120]: in series [1], the inhibition in vivo at 64 mg/kg was 0% and the inhibition in vivo at 128 mg/kg was determined as 5%. Further, the ED30 in series [1] (po) is greater than 128 mg/kg. For the same molecule, the “Side-Effects Noted” value in series [2] (po) is on record as “NONE”.

`FC(F)(F)c1nc2ccccc2n2ccnc12` [Compound 122, 4-trifluoromethylimidazo[1,2-a]quinoxaline]: in series [1], 8 mg/kg produced 8% inhibition in vivo, testing at 16 mg/kg gave an inhibition in vivo of 29%, the inhibition in vivo at 32 mg/kg stood at 31% and at 64 mg/kg the inhibition in vivo was 39%. The same molecule registered an inhibition in vivo at 128 mg/kg in series [1] of 44%. Moreover, in series [1] (po), the “anti-inflammatory activity relative to the ethyl analog” value is “about half”, the ED30 was 35.1 mg/kg and the “reduction of carrageenin-induced edema / anti-edema activity” value is listed as “significant reductions of carrageenin-induced edema without attendant side effects”. For the same molecule, in series [2] (po), the “dose associated with side effects, as multiple of ED30” value is recorded as “does not show side effects at several multiples of its ED30”. In addition, the “Side-Effects Noted” value in series [2] (po, listed as CF3) is “NONE and did not produce any obvious untoward side effects”. For the same molecule, the “Side-Effects Noted” value in series [2] (po, listed as trifluoromethyl analog) was “did not produce any side effects even at a dose of 128 mg/kg”. Moreover, in series [2] (po, result in words), the therapeutic index entry was “very good therapeutic index” and the “toxicity relative to the non-fluorinated analog” value is on record as “less toxic”.

In series [1], `COCc1nc2ccccc2n2ccnc12` [Compound 125] came in with an inhibition in vivo at 64 mg/kg of 1% and an inhibition in vivo at 128 mg/kg of 32%. Moreover, the ED30 in series [1] (po) is roughly 128 mg/kg.
